# Measurements reported in patent publication US12398140B2, “Substituted pyrrolo [2,3-d]pyrimidines for treating familial dysautonomia” (PTC THERAPEUTICS, INC., priority 2019, dated 2025).
# Where a name gives a salt, the structure may show the parent alone.
# Test system: Elongator complex protein 1 (ELPI, also referred to as IKBKAP)
# Experiment: IKBKAP-HTRF assay (IKBKAP protein in lysates of FD patient-derived fibroblasts)
# Type: cell-based, human
# Details: FD patient-derived fibroblasts GM04589, 48 hours, 7-point concentration curve
# Procedure: The assay is used for the quantitative determination of Elongator complex protein 1 (ELPI, also referred to as IKBKAP) concentration in cell lysates using the HTRF® (Homogeneous Time-Resolved Fluorescence) technology. IKBKAP is detected in a sandwich HTRF assay by use of an anti-IKAP antibody labeled with a donor and an anti-IKAP antibody labeled with an acceptor.
# Cells were thawed and incubated in DMEM-10% FBS for 72 hours. Cells were trypsinized, counted, and re-suspended to a concentration of 50,000 cells/ml in DMEM-10% FBS. A 199 μL aliquot of the cell suspensions were plated at 10,000 cells per well in a 96 well microtiter plate and incubated for 3 to 5 hours. […] Test compounds were serially diluted 3.16-fold in 100% DMSO to generate a 7-point concentration curve. A 1 μL aliquot of 200× compound solution was transferred to cell-containing wells, and cells were incubated for 48 hours in a cell culture incubator (37° C., 5% CO2, 100% relative humidity). Triplicate samples were set up for each compound concentration. After 48 hours, the supernatant was removed from the cells and 50 μL of the 1×LB4 lysis buffer, containing protease inhibitors, was added to the cells and incubated with shaking at room temperature for 1 hour. A 36 μL aliquot of this lysate was subsequently transferred to the 384-well plate containing 4 μL of the antibody solution (1:50 dilution of anti IKAP d2 and anti-IKAP K(9+8) in detection buffer). The 384-well plate was then centrifuged for 1 minute to bring the solutions to the bottom of the plate and incubated overnight at 4° C. Fluorescence for each well of the plate at 665 nm and 620 nm was measured was on the EnVision plate reader (Perkin Elmer). The ΔF for each sample is calculated by:
# [formula] wherein Signal is the normalized fluorescence for each sample well and Blank is the average normalized average fluorescence for the Blank control wells.
# The maximum fold increase (MFI) in IKBKAP protein abundance for compounds of Formula (I) or a form thereof relative to the vehicle control are provided in Table 1. MFI was calculated by dividing the ΔF value for each sample well by the sample ΔF for the vehicle control wells.
# The EC2x for IKBKAP protein expression obtained from the 7-point concentration curve generated for each test compound according to the protocol in Biological Example 1 are also provided in Table 1. The term “EC2x for IKBKAP protein expression” is defined as the concentration of test compound that is effective in producing two times the amount of IKBKAP protein in a FD patient cell compared to the amount produced from the DMSO vehicle control.
Structure (SMILES),EC2x for IKBKAP protein expression (concentration producing two times the amount of IKBKAP protein vs DMSO vehicle control),MFI (maximum fold increase in IKBKAP protein abundance relative to the vehicle control)
"CNCCc1[nH]c2nc(Cl)nc(NCc3ccco3)c2c1Br [Cpd 18, 5-bromo-2-chloro-N-(furan-2-yl)methyl]-6-[2-(methylamino)ethyl]-7H-pyrrolo[2,3-d]pyrimidin-4-amine hydrochloride]",*** (between >0.02 μM and ≤0.5 μM is indicated by three stars (***)),**** (between >3.9 and ≤4.9 is indicated by four stars (****))
"C[C@H](N)Cc1[nH]c2nc(Cl)nc(NCc3ccco3)c2c1Br.Cl [Cpd 19, 6-[(2S)-2-aminopropyl]-5-bromo-2-chloro-N-[(furan-2-yl)methyl]-7H-pyrrolo[2,3-d]pyrimidin-4-amine hydrochloride]",**** (between >0.005 μM and ≤0.02 μM is indicated by four stars (****)),**** (between >3.9 and ≤4.9 is indicated by four stars (****))
"C[C@H](N)Cc1cc2c(NCc3ccncc3)nc(Cl)nc2[nH]1 [Cpd 20, 6-[(2S)-2-aminopropyl]-2-chloro-N-[(pyridin-4-yl)methyl]-7H-pyrrolo[2,3-d]pyrimidin-4-amine]",*** (between >0.02 μM and ≤0.5 μM is indicated by three stars (***)),***** (>4.9 is indicated by five stars (*****))
"CC[C@H](N)Cc1[nH]c2nc(Cl)nc(NCc3ccco3)c2c1Cl.Cl [Cpd 21, 6-[(2S)-2-aminobutyl]-2,5-dichloro-N-[(furan-2-yl)methyl]-7H-pyrrolo[2,3-d]pyrimidin-4-amine hydrochloride]",**** (between >0.005 μM and ≤0.02 μM is indicated by four stars (****)),**** (between >3.9 and ≤4.9 is indicated by four stars (****))
"C[C@H](N)Cc1cc2c(NCc3nccs3)nc(Cl)nc2[nH]1.Cl [Cpd 22, 6-[(2S)-2-aminopropyl]-2-chloro-N-[(1,3-thiazol-2-yl)methyl]-7H-pyrrolo[2,3-d]pyrimidin-4-amine hydrochloride]",**** (between >0.005 μM and ≤0.02 μM is indicated by four stars (****)),***** (>4.9 is indicated by five stars (*****))
"C[C@H](N)Cc1c(Cl)c2c(NCc3ccco3)nc(Cl)nc2n1C.Cl [Cpd 23, 6-[(2S)-2-aminopropyl]-2,5-dichloro-N-[(furan-2-yl)methyl]-7-methyl-7H-pyrrolo[2,3-d]pyrimidin-4-amine hydrochloride]",**** (between >0.005 μM and ≤0.02 μM is indicated by four stars (****)),***** (>4.9 is indicated by five stars (*****))
"C[C@H](N)Cc1c(F)c2c(NCc3ccco3)nc(Cl)nc2n1C.Cl [Cpd 24, 6-[(2S)-2-aminopropyl]-2-chloro-5-fluoro-N-[(furan-2-yl)methyl]-7-methyl-7H-pyrrolo[2,3-d]pyrimidin-4-amine hydrochloride]",**** (between >0.005 μM and ≤0.02 μM is indicated by four stars (****)),***** (>4.9 is indicated by five stars (*****))
"C[C@H](N)Cc1cc2c(NCc3cccs3)nc(Cl)nc2[nH]1.Cl [Cpd 25, 6-[(2S)-2-aminopropyl]-2-chloro-N-[(thiophen-2-yl)methyl]-7H-pyrrolo[2,3-d]pyrimidin-4-amine hydrochloride]",**** (between >0.005 μM and ≤0.02 μM is indicated by four stars (****)),***** (>4.9 is indicated by five stars (*****))
"CC[C@H](N)Cc1cc2c(NCc3ccco3)nc(Cl)nc2[nH]1 [Cpd 26, 6-[(2S)-2-aminobutyl]-2-chloro-N-[(furan-2-yl)methyl]-7H-pyrrolo[2,3-d]pyrimidin-4-amine]",**** (between >0.005 μM and ≤0.02 μM is indicated by four stars (****)),**** (between >3.9 and ≤4.9 is indicated by four stars (****))
"C[C@H](N)Cc1cc2c(NCc3ncco3)nc(Cl)nc2[nH]1.Cl [Cpd 27, 6-[(2S)-2-aminopropyl]-2-chloro-N-[(1,3-oxazol-2-yl)methyl]-7H-pyrrolo[2,3-d]pyrimidin-4-amine hydrochloride]",*** (between >0.02 μM and ≤0.5 μM is indicated by three stars (***)),***** (>4.9 is indicated by five stars (*****))
"CCCCc1c(C[C@H](C)N)[nH]c2nc(Cl)nc(NCc3ccco3)c12.Cl [Cpd 28, 6-[(2S)-2-aminopropyl]-5-butyl-2-chloro-N-[(furan-2-yl)methyl]-7H-pyrrolo[2,3-d]pyrimidin-4-amine hydrochloride]",* (An EC2x>1 μM is indicated by one star (*)),* (An MFI≤1.9 is indicated by one star (*))
"CC(C)(C)[C@H](N)Cc1cc2c(NCc3ccco3)nc(Cl)nc2[nH]1.Cl [Cpd 29, 6-[(2R)-2-amino-3,3-dimethylbutyl]-2-chloro-N-[(furan-2-yl)methyl]-7H-pyrrolo[2,3-d]pyrimidin-4-amine hydrochloride]",*** (between >0.02 μM and ≤0.5 μM is indicated by three stars (***)),**** (between >3.9 and ≤4.9 is indicated by four stars (****))
"C[C@H](N)Cc1cc2c(NCc3ccoc3)nc(Cl)nc2[nH]1.Cl [Cpd 30, 6-[(2S)-2-aminopropyl]-2-chloro-N-[(furan-3-yl)methyl]-7H-pyrrolo[2,3-d]pyrimidin-4-amine hydrochloride]",*** (between >0.02 μM and ≤0.5 μM is indicated by three stars (***)),***** (>4.9 is indicated by five stars (*****))
"C[C@H](N)Cc1cc2c(NCc3ccncc3F)nc(Cl)nc2[nH]1.Cl.Cl [Cpd 31, 6-[(2S)-2-aminopropyl]-2-chloro-N-[(3-fluoropyridin-4-yl)methyl]-7H-pyrrolo[2,3-d]pyrimidin-4-amine dihydrochloride]",**** (between >0.005 μM and ≤0.02 μM is indicated by four stars (****)),***** (>4.9 is indicated by five stars (*****))
"CC[C@H](C)[C@H](N)Cc1cc2c(NCc3ccco3)nc(Cl)nc2[nH]1.Cl [Cpd 32, 6-[(2R,3S)-2-amino-3-methylpentyl]-2-chloro-N-[(furan-2-yl)methyl]-7H-pyrrolo[2,3-d]pyrimidin-4-amine hydrochloride]",**** (between >0.005 μM and ≤0.02 μM is indicated by four stars (****)),***** (>4.9 is indicated by five stars (*****))
"Cc1c(C[C@H](C)N)[nH]c2nc(Cl)nc(NCc3ccco3)c12.Cl [Cpd 33, 6-[(2S)-2-aminopropyl]-2-chloro-N-[(furan-2-yl)methyl]-5-methyl-7H-pyrrolo[2,3-d]pyrimidin-4-amine hydrochloride]",***** (≤0.005 μM is indicated by five stars (*****)),***** (>4.9 is indicated by five stars (*****))
